Experiments:
ER = target: T1, ER (Homo sapiens, UniProt P03372); experiment: In-cell western blot analysis, relative ER percentage (compounds B1-B126); type: cell-based; details: ER degradation, 16 hours, read-out: ICW DC50
T1 construct: endogenous in cells; probably T47D or MCF-7
T1 sequence (P03372 1-595): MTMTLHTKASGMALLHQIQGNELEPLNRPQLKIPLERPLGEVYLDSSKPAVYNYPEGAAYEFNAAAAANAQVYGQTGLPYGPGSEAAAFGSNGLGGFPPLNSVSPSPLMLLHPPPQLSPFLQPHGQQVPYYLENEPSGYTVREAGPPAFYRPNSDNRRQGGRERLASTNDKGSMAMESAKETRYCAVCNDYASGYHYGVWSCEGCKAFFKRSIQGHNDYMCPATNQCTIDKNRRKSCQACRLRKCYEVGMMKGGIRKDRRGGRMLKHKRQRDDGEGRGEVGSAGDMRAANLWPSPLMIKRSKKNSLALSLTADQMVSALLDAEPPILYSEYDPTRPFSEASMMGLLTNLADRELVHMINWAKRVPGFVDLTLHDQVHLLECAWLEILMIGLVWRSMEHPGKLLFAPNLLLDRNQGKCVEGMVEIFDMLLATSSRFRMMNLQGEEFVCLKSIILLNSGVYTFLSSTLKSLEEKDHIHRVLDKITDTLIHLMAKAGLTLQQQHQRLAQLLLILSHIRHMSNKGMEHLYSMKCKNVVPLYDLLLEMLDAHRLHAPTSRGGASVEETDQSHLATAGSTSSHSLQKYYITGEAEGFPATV
Outline: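 Cells seeded at 40,000 or 10,000 per well overnight were treated with compound (final 0.5% DMSO) for 16 hours, then fixed with formaldehyde. ER was detected with primary antibodies and anti-rabbit-680/anti-mouse-800 secondaries on a CLX reader. Signal is expressed relative to untreated and DMSO wells set as 100%.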

[1] = Cell growth assay, WST-8 (compounds B1-B126); type: cell-based; details: 96 h; T47D cell line, WST-8, 4 days; read-out: Cell growth inhibition in T47D cell line IC50
Outline: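 Cells seeded at 1500/well overnight, treated one day later with compound doses for 4 days, then 10% WST-8 added for 2.5 h at 37° C in CO2. Absorbance at 450 nm, expressed relative to vehicle control over three independent repeats.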

DC50 (ER) [µM]	Compound	IC50 [1] [µM]
0.01 to 0.1	C[C@@H]1Cc2c(ccc3[nH]ncc23)[C@@H](c2c(F)cc(NC3CN(CC(=O)N4CCN5c6cc7c(cc6OC[C@@H]5C4)C(=O)N(C4CCC(=O)NC4=O)C7)C3)cc2F)N1CC(F)F (some centres unmarked) [Compound B27]	< 0.001
< 0.01	C[C@@H]1Cc2c(ccc3[nH]ncc23)[C@@H](c2c(F)cc(N3CC4(CN(C(=O)CN5CCN6c7cc8c(cc7OC[C@@H]6C5)C(=O)N(C5CCC(=O)NC5=O)C8)C4)C3)cc2F)N1CC(F)F (stereo partly drawn) [Compound B34, 3-((S)-3-(2-(6-(4-((6S,8R)-7-(2,2-difluoroethyl)-8-methyl-6,7,8,9-tetrahydro-3H-pyrazolo[4,3-f]isoquinolin-6-yl)-3,5-difluorophenyl)-2,6-diazaspiro[3.3]heptan-2-yl)-2-oxoethyl)-8-oxo-1,2,3,4,4a,5,8,10-octahydro-9H-pyrazino[1′,2′:4,5][1,4]oxazino[2,3-f]isoindol-9-yl)piperidine-2,6-dione]	< 0.001
< 0.01	COc1cc(N2CCC3(CC2)CC(CN2CCN4c5ccc6c(c5OC[C@H]4C2)CN([C@H]2CCC(=O)NC2=O)C6=O)CO3)ccc1[C@@H]1c2ccc3[nH]ncc3c2C[C@@H](C)N1CC(F)F (stereo partly drawn) [Compound B81, (3S)-3-((5aR)-7-((8-(4-((6S,8R)-7-(2,2-difluoroethyl)-8-methyl-6,7,8,9-tetrahydro-3H-pyrazolo[4,3-f]isoquinolin-6-yl)-3-methoxyphenyl)-1-oxa-8-azaspiro[4.5]decan-3-yl)methyl)-1-oxo-1,3,5,5a,6,7,8,9-octahydro-2H-pyrazino[1′,2′:4,5][1,4]oxazino[2,3-e]isoindol-2-yl)piperidine-2,6-dione]	< 0.001
< 0.01	C[C@@H]1Cc2c(ccc3[nH]ncc23)[C@@H](c2c(F)cc(N3CC4(CCN(CC(=O)N5CCN6c7cc8c(cc7OC[C@@H]6C5)C(=O)N(C5CCC(=O)NC5=O)C8)CC4)C3)cc2F)N1CC(F)F (stereo partly drawn) [Compound B33, 3-((S)-3-(2-(2-(4-((6S,8R)-7-(2,2-difluoroethyl)-8-methyl-6,7,8,9-tetrahydro-3H-pyrazolo[4,3-f]isoquinolin-6-yl)-3,5-difluorophenyl)-2,7-diazaspiro[3.5]nonan-7-yl)acetyl)-8-oxo-1,2,3,4,4a,5,8,10-octahydro-9H-pyrazino[1′,2′:4,5][1,4]oxazino[2,3-f]isoindol-9-yl)piperidine-2,6-dione]	< 0.001
< 0.01	C[C@@H]1Cc2c(ccc3[nH]ncc23)[C@@H](c2c(F)cc(N3CC4(CN(CC(=O)N5CCN6c7cc8c(cc7OC[C@@H]6C5)C(=O)N(C5CCC(=O)NC5=O)C8)C4)C3)cc2F)N1CC(F)F (stereo partly drawn) [Compound B38, 3-((S)-3-(2-(6-(4-((6S,8R)-7-(2,2-difluorocthyl)-8-mcthyl-6,7,8,9-tetrahydro-3H-pyrazolo[4,3-f]isoquinolin-6-yl)-3,5-difluorophenyl)-2,6-diazaspiro[3.3]heptan-2-yl)acetyl)-8-oxo-1,2,3,4,4a,5,8,10-octahydro-9H-pyrazino[1′,2′:4,5][1,4]oxazino[2,3-f]isoindol-9-yl)piperidine-2,6-dione]	< 0.001
< 0.01	C[C@@H]1Cc2c(ccc3[nH]ncc23)[C@@H](c2c(F)cc(N3CC4(CCN(C(=O)CN5CCN6c7cc8c(cc7OC[C@@H]6C5)C(=O)N(C5CCC(=O)NC5=O)C8)C4)C3)cc2F)N1CC(F)F (stereo partly drawn) [Compound B36, 3-((S)-3-(2-(2-(4-((6S,8R)-7-(2,2-difluoroethyl)-8-methyl-6,7,8,9-tetrahydro-3H-pyrazolo[4,3-f]isoquinolin-6-yl)-3,5-difluorophenyl)-2,6-diazaspiro[3.4]octan-6-yl)-2-oxoethyl)-8-oxo-1,2,3,4,4a,5,8,10-octahydro-9H-pyrazino[1′,2′:4,5][1,4]oxazino[2,3-f]isoindol-9-yl)piperidine-2,6-dione]	< 0.001
0.01 to 0.1	C[C@@H]1Cc2c(ccc3[nH]ncc23)[C@@H](c2c(F)cc(NC3CN(C(=O)CN4CCN5c6ccc7c(c6OC[C@H]5C4)CN(C4CCC(=O)NC4=O)C7=O)C3)cc2F)N1CC(F)F (stereo partly drawn) [Compound B100, 3-((R)-7-(2-(3-((4-((6S,8R)-7-(2,2-difluoroethyl)-8-methyl-6,7,8,9-tetrahydro-3H-pyrazolo[4,3-f]isoquinolin-6-yl)-3,5-difluorophenyl)amino)azetidin-1-yl)-2-oxoethyl)-1-oxo-1,3,5,5a,6,7,8,9-octahydro-2H-pyrazino[1′,2′:4,5][1,4]oxazino[2,3-e]isoindol-2-yl)piperidine-2,6-dione]	0.001 to 0.01
< 0.01	COc1cc(N2CCC3(CCN(C(=O)CN4Cc5cc6c(cc5C4)C(=O)N(C4CCC(=O)NC4=O)C6)CC3)CC2)ccc1[C@@H]1c2ccc3[nH]ncc3c2C[C@@H](C)N1CC(F)F (stereo partly drawn) [Compound B69, 3-(6-(2-(9-(4-((6S,8R)-7-(2,2-difluoroethyl)-8-methyl-6,7,8,9-tetrahydro-3H-pyrazolo[4,3-f]isoquinolin-6-yl)-3-methoxyphenyl)-3,9-diazaspiro[5.5]undecan-3-yl)-2-oxoethyl)-1-oxo-3,5,6,7-tetrahydropyrrolo[3,4-f]isoindol-2(1H)-yl)piperidine-2,6-dione]	< 0.001
0.01 to 0.1	C[C@H]1Cc2c(ccc3[nH]ncc23)[C@H](c2ccc(NC3CN(C(=O)CN4CCN5c6cc7c(cc6OC[C@@H]5C4)C(=O)N(C4CCC(=O)NC4=O)C7)C3)cn2)N1CC(F)(F)F (stereo partly drawn) [Compound B35, 3-((S)-3-(2-(3-((6-((6R,8S)-8-methyl-7-(2,2,2-trifluoroethyl)-6,7,8,9-tetrahydro-3H-pyrazolo[4,3-f]isoquinolin-6-yl)pyridin-3-yl)amino)azetidin-1-yl)-2-oxoethyl)-8-oxo-1,2,3,4,4a,5,8,10-octahydro-9H-pyrazino[1′,2′:4,5][1,4]oxazino[2,3-f]isoindol-9-yl)piperidine-2,6-dione]	> 0.01
< 0.01	C[C@@H]1Cc2c(ccc3[nH]ncc23)[C@@H](c2c(F)cc(N3CC4(CCN(CC(=O)N5CCN6c7cc8c(cc7OC[C@@H]6C5)C(=O)N(C5CCC(=O)NC5=O)C8)C4)C3)cc2F)N1CC(F)F (stereo partly drawn) [Compound B40, 3-((S)-3-(2-(2-(4-((6S,8R)-7-(2,2-difluoroethyl)-8-methyl-6,7,8,9-tetrahydro-3H-pyrazolo[4,3-f]isoquinolin-6-yl)-3,5-difluorophenyl)-2,6-diazaspiro[3.4]octan-6-yl)acetyl)-8-oxo-1,2,3,4,4a,5,8,10-octahydro-9H-pyrazino[1′,2′:4,5][1,4]oxazino[2,3-f]isoindol-9-yl)piperidine-2,6-dione]	< 0.001

Compound	DC50 (ER) [µM]	IC50 [1] [µM]
C[C@@H]1Cc2c(ccc3[nH]ncc23)[C@@H](c2ccc(N3CC4(CCN(C(=O)CN5CCC6(CC5)COc5c6ccc6c5CN(C5CCC(=O)NC5=O)C6=O)CC4)C3)cn2)N1CC(F)(F)F (stereo partly drawn) [Compound B64, 3-(1′-(2-(2-(6-((6S,8R)-8-methyl-7-(2,2,2-trifluoroethyl)-6,7,8,9-tetrahydro-3H-pyrazolo[4,3-f]isoquinolin-6-yl)pyridin-3-yl)-2,7-diazaspiro[3.5]nonan-7-yl)-2-oxoethyl)-6-oxo-6,8-dihydro-2H,7H-spiro[furo[2,3-e]isoindole-3,4′-piperidin]-7-yl)piperidine-2,6-dione]	< 0.01	< 0.001
COc1cc(N2CCC3(CC2)OCC(CN2CCC4(CC2)COc2c4ccc4c2CN(C2CCC(=O)NC2=O)C4=O)CO3)ccc1[C@@H]1c2ccc3[nH]ncc3c2C[C@@H](C)N1CC(F)F (stereo partly drawn) [Compound B117, 3-(1′-((9-(4-((6S,8R)-7-(2,2-difluoroethyl)-8-methyl-6,7,8,9-tetrahydro-3H-pyrazolo[4,3-f]isoquinolin-6-yl)-3-methoxyphenyl)-1,5-dioxa-9-azaspiro[5.5]undecan-3-yl)methyl)-6-oxo-6,8-dihydro-2H,7H-spiro[furo[2,3-e]isoindole-3,4′-piperidin]-7-yl)piperidine-2,6-dione]	< 0.01	< 0.001
C[C@@H]1Cc2c(ccc3[nH]ncc23)[C@@H](c2ccc(N3CC4(CCC(CN5CCC6(CCOc7c6ccc6c7CN(C7CCC(=O)NC7=O)C6=O)CC5)CC4)C3)cn2)N1CC(F)(F)F (stereo partly drawn) [Compound B58, 3-(1-((2-(6-((6S,8R)-8-methyl-7-(2,2,2-trifluoroethyl)-6,7,8,9-tetrahydro-3H-pyrazolo[4,3-f]isoquinolin-6-yl)pyridin-3-yl)-2-azaspiro[3.5]nonan-7-yl)methyl)-7′-oxo-2′,3′,7′,9′-tetrahydro-8′H-spiro[piperidine-4,4′-pyrano[2,3-e]isoindol]-8′-yl)piperidine-2,6-dione]	> 0.1	< 0.001
